Series [1] deals with HIV-1LAI. Description: microbe, parasite or virus in culture. It counts as cell-based. The note with it: for EC50: Human immunodeficiency virus 1, MT2, MT-2 cells, 100 TCID50, MTT assay, read-out: EC50 Against HIV-1LAI. On the procedure:
(§1) The susceptibility of HIV-1LAI or HIV-2ROD to various compounds was determined as previously described[20]–[22]. Briefly, MT-2 cells (10^4/ml) were exposed to 100 TCID50 of HIV-1LAI or HIV-2ROD in the presence or absence of various concentrations of compounds in 96-well plates and were incubated at 37 °C for 7 days. After incubation, 100 μl of the medium was removed from each well, 3-(4,5-dimetylthiazol-2-yl)-2,5-diphenyltetrazolium bromide (MTT) solution (10 μl, 7.5 mg/ml in PBS) was added to each well, followed by incubation at 37 °C for 2 h. […] To determine the sensitivity of clinically isolated HIV-1s to compounds, PHA-PBMC (10^6/ml) were exposed to 50 TCID50 of each HIV-1 and cultured in the presence or absence of various concentrations of compounds in 10-fold serial dilutions in 96-well plates. In determining the drug-susceptibility of certain laboratory HIV-1 strains, MT-4 cells were employed as target cells as previously described[23],[24]. MT-4 cells (10^5/ml) were exposed to 100 TCID50 of drug-resistant HIV-1s in the presence or absence of various concentrations of compounds and were incubated at 37 °C. On day 7, the supernatants were harvested and the amounts of p24 were determined by using a fully-automated chemiluminescent enzyme immunoassay system (Lumipulse f: Fujirebio, Tokyo)[35]–[37]. […] All assays were performed in duplicate, and EC50 shown in this report represent average values of two to four independent experiments. PHA-PBMCs were derived from a single donor in each independent experiment. The research protocols described in the present study were carried out in accordance with relevant guidelines and regulations, and were approved in Ethics Committee for Epidemiological and General Research at the Faculty of Life Sciences, Kumamoto University.
For orientation: Tetrazolium dyes change colour on reduction, which living cells bring about.

Series [2] relates to HIV-2ROD. Description: microbe, parasite or virus in culture. The series is classed as cell-based. As to conditions: for EC50: Human immunodeficiency virus 2, MT2, MT-2 cells, 100 TCID50, MTT assay, read-out: EC50 Against HIV-2ROD. As to the method: as §1
Series [3] is described as follows: Cytotoxicity against MT-2 cells (MTT assay). It counts as cell-based. As to conditions: human. As to the method:
as §1

The test system of series [4] is HIV-1BaL (subtype B, R5). Description: p24 production inhibition in PHA-PBMC. As to conditions: Human immunodeficiency virus 1, PHA-PBMC, p24 Gag production. It counts as cell-based. On the procedure:
as §1

In series [5] the test system is HIV-1ERS104pre (wild-type). Briefly: p24 production inhibition in PHA-PBMC. The note with it: Human immunodeficiency virus 1, PHA-PBMC, p24 Gag production. It counts as cell-based. On the procedure:
as §1

For series [6], the system named is HIV-1MDR/B. Briefly: p24 production inhibition in PHA-PBMC. It counts as cell-based. As to the method:
as §1

Series [7] relates to HIV-1MDR/C. Description: p24 production inhibition in PHA-PBMC. It counts as cell-based. On the procedure:
as §1

For series [8], the system named is HIV-1MDR/G. Description: p24 production inhibition in PHA-PBMC. It counts as cell-based. The note with it: for EC50: Human immunodeficiency virus 1, PHA-PBMC, p24 Gag production. On the procedure:
as §1

The subject of series [9] is HIV-1MDR/TM. Briefly: p24 production inhibition in PHA-PBMC. The series is classed as cell-based. On the procedure:
as §1

The subject of series [10] is HIV-1MDRmix DRV ^R 20P. Briefly: p24 production inhibition in PHA-PBMC. As to conditions: for EC50: Human immunodeficiency virus 1, read-out: EC50 HIV-1MDRmix DRV ^R 20P, PHA-PBMC, p24 Gag production. The series is classed as cell-based. On the procedure: as §1
The test system of series [11] is HIV-1ME46 (subtype B, X4/R5). Briefly: p24 production inhibition in PHA-PBMC. It counts as cell-based. As to conditions: Human immunodeficiency virus 1, PHA-PBMC, p24 Gag production. As to the method:
as §1

Series [12] has as its system HIV-1APV ^R 5μM. Briefly: p24 production inhibition in MT-4 cells. The series is classed as cell-based. As to conditions: for EC50: Human immunodeficiency virus 1, MT4, read-out: EC50 HIV-1APV ^R 5μM, MT-4 cells, p24 Gag production. As to the method: as §1
The test system of series [13] is HIV-1ATV ^R 5μM. Briefly: p24 production inhibition in MT-4 cells. It counts as cell-based. As to conditions: for EC50: Human immunodeficiency virus 1, MT4, read-out: EC50 HIV-1ATV ^R 5μM, MT-4 cells, p24 Gag production. As to the method:
as §1

Series [14] deals with HIV-1LPV ^R 5μM. Briefly: p24 production inhibition in MT-4 cells. It counts as cell-based. As to conditions: for EC50: Human immunodeficiency virus 1, MT4, read-out: EC50 HIV-1LPV ^R 5μM, MT-4 cells, p24 Gag production. As to the method: as §1
For series [15], the system named is HIV-1NL4-3. Description: p24 production inhibition in MT-4 cells. It counts as cell-based. The note with it: Human immunodeficiency virus 1, MT4, MT-4 cells, p24 Gag production, Table 3. On the procedure:
as §1

For series [16], the system named is HIV-1_9510 ^R 36P. Description: p24 production inhibition in MT-4 cells. It counts as cell-based. The note with it: for EC50: Human immunodeficiency virus 1, MT4, read-out: EC50 HIV-19510RP36. On the procedure: as §1
The test system of series [17] is HIV-192UG029 (subtype A, X4). Description: p24 production inhibition in PHA-PBMC. It counts as cell-based, HIV-1. The note with it: Human immunodeficiency virus 1, read-out: EC50 HIV-192UG029 (subtype A, X4). On the procedure:
as §1

Series [18] has as its system HIV-1ERS104pre (wild-type). As to conditions: PHA-PBMs, p24 assay, previously reported; and 22; read-out: EC50 HIV-1WT/ERS104pre; cited from earlier work.
The test system of series [19] is HIV-1MDR/G. Further details: method as in earlier work. As to conditions: and 22, cited from earlier work; for EC50: PHA-PBMs, p24 assay, previously reported; for fold change in EC50 HIV-1MDR/G: compared to HIV-1WT/ERS104pre, previously reported data.
The test system of series [20] is HIV-1MDRmix DRV ^R 20P. The note with it: cited from earlier work.
In series [21] the test system is HIV-1NL4-3. The note with it: MT-4 cells, p24 assay, previously reported; and 22; cited from earlier work.
The subject of series [22] is HIV-1APV ^R 5μM. Also noted: method as in earlier work. The note with it: and 22, cited from earlier work; for EC50: MT-4 cells, p24 assay, previously reported, read-out: EC50 HIV-1APVR5M; for fold change in EC50 HIV-1APVR5M: compared to HIV-1NL4-3, previously reported data.
The mark [23] stands for this setting: Human immunodeficiency virus 1, PHA-PBMC, p24 Gag production.
Setting [24] is: compared to EC50 for HIV-1ERS104pre.
Setting [25] is: number in parentheses, compared to HIV-1NL4-3.

Structures are written as SMILES. Like-named read-outs stand apart in the source and are kept apart here. Where only a bound is given, the exact number is not on record here.

Broadly, the CC50 is the concentration giving 50% cytotoxicity. A higher CC50 goes with lower toxicity to the cells. For `COC(=O)N[C@H](C(=O)N[C@@H](Cc1ccccc1)[C@@H](O)CN(Cc1ccc(-c2ccccn2)cc1)NC(=O)[C@@H](NC(=O)OC)C(C)(C)C)C(C)(C)C` [ATV, Atazanavir], the EC50 stood at 4 ± 1 nM in [1]; 17 ± 3 nM in series [2]; 2 ± 1 nM in [4]; 3.1 ± 0.6 nM in series [5]; 360 ± 160 nM in series [6] (setting [23]); 50 ± 20 nM in series [7] (setting [23]). In addition, the EC50 in series [8] was 30 ± 10 nM; in series [9] (setting [23]), 71 ± 8 nM; in [10], over 1000 nM; in [11] it was 4.2 ± 0.5 nM; in [12], 371 ± 8 nM; in series [13], over 1000 nM. Further, the EC50 in series [14] was found to be 38 ± 1 nM; in [15], 4.3 ± 0.9 nM; in series [16], 24 ± 1 nM; in [17] it was 6 ± 3 nM. Besides, in series [1] (ratio of CC50 to EC50 against HIV-1LAI), the “Selectivity Index (CC50/EC50) MT2/HIV-1LAI” value was 8,100. Besides, the “Selectivity Index (CC50/EC50) MT2/HIV-2ROD” value in series [2] (ratio of CC50 to EC50 against HIV-2ROD) is listed as 1,906. For the same molecule, the CC50 in series [3] was found to be 32400 ± 1000 nM. Also, the “fold change of EC50 HIV-1MDR/B” value in [6] (setting [24]) came out at 116. In addition, the “fold change of EC50 HIV-1MDR/C” value in series [7] (setting [24]) is given as 16. Also, the “fold change of EC50 HIV-1MDR/G” value in [8] (setting [24]) was determined as 10. In addition, the “fold change of EC50 HIV-1MDR/TM” value in [9] (setting [24]) is 23. The “fold change of EC50 HIV-1MDRmix DRV ^R 20P” value in [10] (setting [24]) is listed as over 323. Besides, in [12] (setting [25]), the “fold change of EC50 HIV-1APV ^R 5μM” value is listed as 86. In addition, in [13] (setting [25]), the “fold change of EC50 HIV-1ATV ^R 5μM” value was over 233. Further, the “fold change of EC50 HIV-1LPV ^R 5μM” value in series [14] (setting [25]) is recorded as 9. Besides, the “fold change of EC50 HIV-19510RP36” value in [16] (compared to EC50 for HIV-1NL4-3, Supplemental Table 3) came out at 6.

With `CC(C)CN(C[C@@H](O)[C@H](Cc1ccccc1)NC(=O)O[C@H]1CO[C@H]2OCC[C@H]21)S(=O)(=O)c1ccc(N)cc1` [DRV, Darunavir], the EC50 in series [1] turned out to be 5 ± 2 nM; in series [2], 14 ± 7 nM; in series [4] it was 1.8 ± 0.1 nM; in series [5], 4.4 ± 0.9 nM; in series [8] it was 20 ± 9 nM; in [10], 300 ± 60 nM. In addition, the EC50 in series [11] came out at 2.3 ± 0.4 nM; in series [12], 410 ± 10 nM; in series [13], 24 ± 60 nM; in series [14], 34 ± 5 nM; in series [15] it was 4.5 ± 0.4 nM; in series [16], 41 ± 1 nM. In series [17], the EC50 is 5.5 ± 0.1 nM. This molecule also registered a cytotoxic concentration (CC50) at 7 days in series [3] of 101000 ± 8800 nM.

As for `COc1ccc(S(=O)(=O)N(CC(C)C)C[C@@H](O)[C@H](Cc2ccccc2)NC(=O)O[C@H]2CO[C@H]3O[C@@H]4OCC[C@@H]4[C@H]32)cc1` [GRL-0519], the EC50 is 0.6 ± 0.2 nM in [18]; 2.6 ± 1.3 nM in series [19]; 30 ± 9.8 nM in [20] (PHA-PBMs, p24 assay, previously reported, read-out: EC50 HIV-1MDRmixDRVR20P); 0.5 ± 0.1 nM in series [21]; 38 ± 0.9 nM in series [22]. For the same molecule, the “fold change in EC50 HIV-1MDR/G” value in series [19] is on record as 4. Further, in series [20] (compared to HIV-1WT/ERS104pre, previously reported data), the “fold change in EC50 HIV-1MDRmixDRVR20P” value is listed as 50. For the same molecule, the “fold change in EC50 HIV-1APVR5M” value in series [22] was 76.

In the case of `COc1ccc(S(=O)(=O)N(CC(C)C)C[C@@H](O)[C@H](Cc2ccccc2)NC(=O)OC2CO[C@H]3OCC(F)(F)[C@@H]23)cc1` (some centres unmarked) [GRL-04810], the EC50 was 2.3 ± 0.1 nM in series [18], 4 ± 1 nM in series [19], 0.5 ± 0.5 nM in series [21] and 430 ± 20 nM in series [22]. Further, in series [19], the “fold change in EC50 HIV-1MDR/G” value was 2. Besides, the “fold change in EC50 HIV-1APVR5M” value in series [22] is 860.

(Values after article PMC5613016, “GRL-09510, a Unique P2-Crown-Tetrahydrofuranylurethane -Containing HIV-1 Protease Inhibitor, Maintains Its Favorable Antiviral Activity against Highly-Drug-Resistant HIV-1 Variants in vitro” (Scientific Reports, 2017).)
